Experimental data from patent US5843940A, “Benzothiophene compounds, compositions, and method” (Eli Lilly and Company, priority 1997, dated 1998).
pIC50: −log10 of the molar value. Counter-ions that a name gives are not always drawn.

Columns and labels:
[1] = tested on: MCF-7 breast adenocarcinoma cells; assay: MCF-7 Proliferation Assay (estrogen dependent breast cancer); assay type: cell-based; settings: Homo sapiens, MCF7, versus control (DMSO), tritiated thymidine
Experimental: MCF-7 breast adenocarcinoma cells (ATCC HTB 22) are maintained in MEM (minimal essential medium, phenol-red free, Sigma St.Louis Mo.) supplimented with 10% fetal bovine serum (FBS) (v/v), L-glutamine (2 mM), sodium pyruvate (1 mM), HEPES (10 mM), non-essential amino acids and bovine insulin (1 ug/mL). Ten days prior to the assay, the MCF-7 cells are switched to maintenance medium supplemented with 10% dextrancoated charcoal stripped fetal bovine serum (DCC-FBS) assay medium in place of the 10% FBS to deplete internal stores of estrogen. MCF-7 cells are removed from the maintenance flasks using a cell dissociating medium (Ca/Mg free HBSS (phenol-red free) supplemented with 10 mM HEPES and 2 mM EDTA. Cells are washed twice with the assay medium and adjusted to 80,000 cells/mL. Approximately […] (8,000 cells) are added to a flat-bottomed microculture well (Costar 3596) and incubated at […] in a 5% CO2 humidified incubator for 48 hours to allow cell adherence and equilibrium after transfer. Serial dilutions of the compounds of formula I or DMSO as a diluent control are prepared in assay medium and […] to triplicate microcultures followed by […] for a final volume of […]. After an additional 48 hours of incubation, the microcultures are pulsed with tritiated thymidine ([…]) for 4 hours. Culture are terminated by freezing at -70° C. for 24 hours followed by thawing and harvesting of microcultures using a Skatron Semiautomatic Cell Harvester. Samples are counted by liquid scintillation. Fifty percent inhibitory concentration of the test drugs (IC50) are determined versus the control (DMSO).

[2] = tested on: uterus of ovariectomized rats; assay: Uterine weight in ovariectomized rats; assay type: in vivo, female Sprague Dawley rats; settings: for Uterine Weight % Inc (increase versus the ovariectomized controls): daily for 4 days, 5 to 6 rats, * p < .05
Description: (§1) Seventy-five day old female Sprague Dawley rats (weight range of 200 to 225 g) were obtained from Charles River Laboratories (Portage, Mich.). The animals were either bilaterally ovariectomized (OVX) or exposed to a Sham surgical procedure at Charles River Laboratories, and then shipped after one week. Upon arrival, they were housed in metal hanging cages in groups of 3 or 4 per cage and had ad libitum access to food (calcium content approximately 0.5%) and water for one week. Room temperature was maintained at 22.2°±1.7° C. with a minimum relative humidity of 40%. The photoperiod in the room was 12 hours light and 12 hours dark.
(§2) Dosing Regimen Tissue Collection. After a one week acclimation period (therefore, two weeks post-OVX) daily dosing with test compound was initiated. 17α-ethynyl estradiol or the test compound were given orally, unless otherwise stated, as a suspension in 1% carboxymethylcellulose or dissolved in 20% cyclodextrin. Animals were dosed daily for 4 days. Following the dosing regimen, animals were weighed and anesthetized with a ketamine:xylazine (2:1, V:V) mixture and a blood sample was collected by cardiac puncture. The animals were then sacrificed by asphyxiation with CO2, the uterus was removed through a midline incision, and a wet uterine weight was determined.
(§3) The data presented in Table 1 below reflects the response of 5 to 6 rats per treatment.

[3] = tested on: Uterine Eosinophil Peroxidase; assay: Uterine Eosinophil Peroxidase (EPO) Assay; assay type: in vivo, female Sprague Dawley rats; settings: for Uterine Eosinophil (Vmax), Eosinophil peroxidase Vmax: daily for 4 days, 5 to 6 rats, * p < .05
Description: as §1, §2
Uterine Eosinophil Peroxidase (EPO) Assay. Uteri were kept at 4° C. until time of enzymatic analysis. The uteri were then homogenized in 50 volumes of 50 mM Tris buffer (pH-8.0) containing 0.005% Triton X-100. Upon addition of 0.01% hydrogen peroxide and 10 mM O-phenylenediamine (final concentrations) in Tris buffer, increase in absorbance was monitored for one minute at 450 nm. The presence of eosonophils in the uterus is an indication of estrogenic activity of a compound. The maximal velocity of a 15 second interval was determined over the initial, linear portion of the reaction curve.
as §3

[4] = tested on: Serum cholesterol; assay: Serum cholesterol analysis in ovariectomized rats; assay type: in vivo, female Sprague Dawley rats; settings: for Serum Cholest. % Dec. (decrease versus ovariectomized controls): daily for 4 days, 5 to 6 rats, * p < .05
Description: as §1, §2
Cholesterol Analysis. Blood samples were allowed to clot at room temperature for 2 hours, and serum was obtained following centrifugation for 10 minutes at 3000 rpm. Serum cholesterol was determined using a Boehringer Mannheim Diagnostics high performance cholesterol assay. Briefly the cholesterol was oxidized to cholest-4-en-3-one and hydrogen peroxide. The hydrogen peroxide was then reacted with phenol and 4-aminophenazone in the presence of peroxidase to produce a p-quinone imine dye, which was read spectrophotemetrically at 500 nm. Cholesterol concentration was then calculated against a standard curve.
as §3

[5] = tested on: femur density of ovariectomized rats; assay: Osteoporosis test, bone density in ovariectomized rats; assay type: in vivo; settings: orally administered, 35 days, in 20% hydroxypropyl β-cyclodextrin
Experimental: Following the General Preparation Procedure, infra, the rats are treated daily for 35 days (6 rats per treatment group) and sacrificed by carbon dioxide asphyxiation on the 36th day. The 35 day time period is sufficient to allow maximal reduction in bone density, measured as described herein. At the time of sacrifice, the uteri are removed, dissected free of extraneous tissue, and the fluid contents are expelled before determination of wet weight in order to confirm estrogen deficiency associated with complete ovariectomy. […] The uteri are then placed in 10% neutral buffered formalin to allow for subsequent histological analysis. The right femurs are excised and digitilized x-rays generated and analyzed by an image analysis program (NIH image) at the distal metaphysis. The proximal aspect of the tibiae from these animals are also scanned by quantitative computed tomography. In accordance with the above procedures, compounds of the instant invention and ethynyl estradiol (EE2) in 20% hydroxypropyl β-cyclodextrin are orally administered to test animals. Distal femur metaphysis and proximal tibiae data are compared to intact and ovariectomized test animals. Results are reported as percent protection relative to ovariectomy.

pIC50 [1] | SMILES | Uterine Weight % Inc (increase versus the ovariectomized controls) ([2]; 0.1 mg/kg PO) [%] | Uterine Weight % Inc (increase versus the ovariectomized controls) ([2]; 1.0 mg/kg PO) [%] | Uterine Weight % Inc (increase versus the ovariectomized controls) ([2]; 10.0 mg/kg PO) [%] | Uterine Eosinophil (Vmax), Eosinophil peroxidase Vmax ([3]; 0.1 mg/kg PO) | Uterine Eosinophil (Vmax), Eosinophil peroxidase Vmax ([3]; 1.0 mg/kg PO) | Uterine Eosinophil (Vmax), Eosinophil peroxidase Vmax ([3]; 10.0 mg/kg PO) | Serum Cholest. % Dec. (decrease versus ovariectomized controls) ([4]; 0.1 mg/kg PO) [%] | Serum Cholest. % Dec. (decrease versus ovariectomized controls) ([4]; 1.0 mg/kg PO) [%] | Serum Cholest. % Dec. (decrease versus ovariectomized controls) ([4]; 10.0 mg/kg PO) [%] | uterine weight (in words) ([2]; EE2 orally at 0.1 mg/kg/day, versus ovariectomized test animals) | eosinophil infiltration into the uterus (in words) ([3]; stromal layer of ovariectomized rats) | loss of femur density after ovariectomy [5] | serum cholesterol (in words) ([4]; EE2 orally at 0.1 mg/kg/day)
– | COc1ccc(-c2sc3cc(OC)ccc3c2-c2cccc(OCCN3CCCCC3)c2)cc1.Cl [Example 1, 2-(4-Methoxyphenyl)-3-[3-[2-(1-piperidinyl)ethoxy]phenyl]-6-methoxybenzo[b]thiophene hydrochloride] | 24 | 37.2 | 68.2 | 7.5 | 22.2 | 103.5 | 25.8 | 56.1 | 71.1 | – | – | – | –
– | COc1ccc(-c2sc3cc(OC)ccc3c2-c2cccc(OCCCCN3CCCCC3)c2)cc1.Cl [Example 3, 2-(4-Methoxyphenyl)-3-[3-[4-(1-piperidinyl)butoxy]phenyl]-6-methoxybenzo[b]thiophene hydrochloride] | 23.9 | 62.1 | 65.0 | 4.8 | 43.5 | -91.2 | 35.5 | 64.4 | 78.0 | – | – | – | –
– | C#C[C@]1(O)CC[C@H]2[C@@H]3CCc4cc(O)ccc4[C@H]3CC[C@@]21C [EE2, 17α-ethynyl estradiol, reference compound] | 118.6 | – | – | 234.2 | – | – | 89.3 | – | – | substantially greater than the uterine weight of ovariectomized test animals | substantial, expected increase in eosinophil infiltration | prevents this loss | caused a decrease in serum cholesterol
8.10 | Oc1ccc(-c2sc3cc(O)ccc3c2-c2cccc(OCCN3CCCCC3)c2)cc1 [Example 4, 2-(4--Hydroxyphenyl)-3-[3-[2-(1-piperidinyl)ethoxy]phenyl]-6-hydroxybenzo[b]thiophene hydrochloride] | 9.1 | 5.6 | 78.7 | 4.8 | 4.8 | 103.8 | 33.3 | 57.2 | 81.0 | – | – | – | –
– | COc1ccc(-c2sc3cc(OC)ccc3c2-c2cccc(OCCCN3CCCCC3)c2)cc1.Cl [Example 2, 2-(4-Methoxyphenyl)-3-[3-[3-(1-piperidinyl)propoxy]phenyl]-6-methoxybenzo[b]thiophene hydrochloride] | 20.2 | 35.7 | 39.1 | 24.0 | 32.4 | 32.1 | 59.1 | 76.5 | 69.4 | – | – | – | –
9.70 | Oc1ccc(-c2sc3cc(O)ccc3c2-c2cccc(OCCCN3CCCCC3)c2)cc1 [Example 5] | – | – | – | – | – | – | – | – | – | – | – | – | –
– | Oc1ccc(-c2sc3cc(O)ccc3c2-c2ccc(OCCN3CCCCC3)cc2)cc1 [Compound A, reference compound] | 24.6 | 64.8 | 41.7 | 21.0 | 49.9 | 55.9 | 45.4 | 68.8 | 65.3 | – | – | – | –

SMILES | pIC50 [1] | Uterine Weight % Inc (increase versus the ovariectomized controls) ([2]; 0.1 mg/kg PO) [%] | Uterine Weight % Inc (increase versus the ovariectomized controls) ([2]; 1.0 mg/kg PO) [%] | Uterine Weight % Inc (increase versus the ovariectomized controls) ([2]; 10.0 mg/kg PO) [%] | Uterine Eosinophil (Vmax), Eosinophil peroxidase Vmax ([3]; 0.1 mg/kg PO) | Uterine Eosinophil (Vmax), Eosinophil peroxidase Vmax ([3]; 1.0 mg/kg PO) | Uterine Eosinophil (Vmax), Eosinophil peroxidase Vmax ([3]; 10.0 mg/kg PO) | Serum Cholest. % Dec. (decrease versus ovariectomized controls) ([4]; 0.1 mg/kg PO) [%] | Serum Cholest. % Dec. (decrease versus ovariectomized controls) ([4]; 1.0 mg/kg PO) [%] | Serum Cholest. % Dec. (decrease versus ovariectomized controls) ([4]; 10.0 mg/kg PO) [%] | uterine weight (in words) ([2]; EE2 orally at 0.1 mg/kg/day, versus ovariectomized test animals) | eosinophil infiltration into the uterus (in words) ([3]; stromal layer of ovariectomized rats) | loss of femur density after ovariectomy [5] | serum cholesterol (in words) ([4]; EE2 orally at 0.1 mg/kg/day)
Oc1ccc(-c2sc3cc(O)ccc3c2-c2cccc(OCCCCN3CCCCC3)c2)cc1 [Example 6, 2-(4--Hydroxyphenyl)-3-[3-(1-piperidinyl)butoxy]phenyl]-6-hydroxybenzo[b]thiophene hydrochloride] | 8.70 | – | – | – | – | – | – | – | – | – | – | – | – | –
